Laboratory results taken from patent publication US20190031624A1, “THERAPEUTIC COMPOUNDS AND METHODS TO TREAT INFECTION” (priority 2017, published 2019).
Values after ≈ are worked out from the molar mass of the structure shown. Structures can show the parent of a compound that is named as a salt. Where two headings read alike, the source gives them in different places.

What was measured:
[1] = biological target: T1, MexAB-OprM efflux transporter (Pseudomonas aeruginosa, UniProt P52002); details: wild-type P. aeruginosa; cited from earlier work
T1 construct: MexAB-OprM efflux transporter present in wild-type P. aeruginosa; endogenous in cells; host or cells: wild-type P. aeruginosa

MreB = details: P. aeruginosa strains with defective efflux transporters; cited from earlier work
P. aeruginosa PAO1 [2] = test: Intrinsic MIC assay (CLSI broth microdilution); format: cell-based, Pseudomonas aeruginosa; details: for MIC: Pseudomonas aeruginosa, read-out: Antibiotic Activity Against P. aeruginosa: Intrinsic MIC
Description: (§1) MIC assays were conducted in accordance with Clinical and Laboratory Standards Institute (CLSI) guidelines for broth microdilution. A 96-well plate containing cation-adjusted Mueller-Hinton (CAMH broth with 2-fold serial dilution of compounds was inoculated with log-phase bacterial at 5×10^5 CFU/mL. The final volume in each well was 100 μL. Each compound was tested in duplicate. The microtiter plates were incubated in an aerobic environment for 18 hours at 37° C. Then the bacterial growth was tested by reading the plate with a VersaMax plate reader (Molecular Devices, Inc.) at 600 nm. The MIC was defined as the lowest compound concentration that inhibited 90% of bacteria growth.
(§2) Pseudomonas aeruginosa PAO1

E. coli 25922 [3] = test: MIC assay in the presence of a bacterial efflux pump inhibitor (EPI); format: cell-based, Escherichia coli; details: with 12.5 ug/ml of EPI (2S,4R)-4-(ammoniomethyl)-2-((6-(4-fluorophenyl)-1H-indole-2-carboxamido)methyl)pyrrolidin-1-ium, MIC90
Description: (§3) The ability of a compound to produce an antibiotic effect can be determined using a method as described in Example 21. Data for representative compounds used in combination with the efflux pump inhibitor [(2S,4R)-4-(ammoniomethyl)-2-((6-(4-fluorophenyl)-1H-indole-2-carboxamido)methyl)pyrrolidin-1-ium] is shown in Table 1.
as §1
(§4) Escherichia coli ATCC 25922
(§5) The EPI assay for the purposes of these studies represents a MIC assay in which the MIC of the antibiotic against the bacteria is tested in the presence of an experimental efflux pump inhibitor (EPI). The highest concentration of the EPI present in the assay typically is ½ of the intrinsic MIC of the compound. If the intrinsic MIC of the EPI is greater than 100 μg/mL, the EPI assay was tested with 50 μg/mL. Using serial dilutions of the EPI, its enhancement of antibiotic activity was then evaluated. The relative EPI activity was decided by comparing the MIC of the antibiotic in the presence of the EPI compound with the intrinsic MIC of the antibiotic alone. For comparative purposes, we generally used EPIs at concentration of 12.5 and 6.25 μg/ml against varying concentration of our test antibiotic.

P. aeruginosa PAO1 [4] = test: as above; format: cell-based, Pseudomonas aeruginosa; details: with 12.5 ug/ml of EPI (2S,4R)-4-(ammoniomethyl)-2-((6-(4-fluorophenyl)-1H-indole-2-carboxamido)methyl)pyrrolidin-1-ium, MIC90
Description: as §3, §1, §2, §5

E. coli 25922 [5] = test: Intrinsic MIC assay (CLSI broth microdilution); format: cell-based, Escherichia coli; details: for MIC: read-out: Antibiotic Activity Against E. coli: Intrinsic MIC
Description: as §1, §4

[6] = 18 h, P. aeruginosa PAO1, without EPI, MIC90
[7] = Escherichia coli, 18 h, E. coli 25922, without EPI, MIC90

T1 sequence (Q51487 18-485): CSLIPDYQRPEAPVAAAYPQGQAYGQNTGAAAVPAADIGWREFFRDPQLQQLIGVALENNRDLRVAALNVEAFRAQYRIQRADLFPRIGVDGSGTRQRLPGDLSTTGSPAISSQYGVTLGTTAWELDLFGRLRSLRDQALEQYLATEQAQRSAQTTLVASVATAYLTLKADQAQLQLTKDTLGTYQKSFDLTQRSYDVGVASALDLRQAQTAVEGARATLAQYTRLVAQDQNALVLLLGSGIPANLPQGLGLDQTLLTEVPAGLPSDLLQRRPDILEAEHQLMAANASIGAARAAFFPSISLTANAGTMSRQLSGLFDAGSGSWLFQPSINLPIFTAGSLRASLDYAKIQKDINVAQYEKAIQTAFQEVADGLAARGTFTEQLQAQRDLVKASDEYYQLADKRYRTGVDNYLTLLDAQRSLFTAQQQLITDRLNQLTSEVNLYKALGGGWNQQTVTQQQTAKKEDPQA
T1 sequence (P52477 24-383, further chain): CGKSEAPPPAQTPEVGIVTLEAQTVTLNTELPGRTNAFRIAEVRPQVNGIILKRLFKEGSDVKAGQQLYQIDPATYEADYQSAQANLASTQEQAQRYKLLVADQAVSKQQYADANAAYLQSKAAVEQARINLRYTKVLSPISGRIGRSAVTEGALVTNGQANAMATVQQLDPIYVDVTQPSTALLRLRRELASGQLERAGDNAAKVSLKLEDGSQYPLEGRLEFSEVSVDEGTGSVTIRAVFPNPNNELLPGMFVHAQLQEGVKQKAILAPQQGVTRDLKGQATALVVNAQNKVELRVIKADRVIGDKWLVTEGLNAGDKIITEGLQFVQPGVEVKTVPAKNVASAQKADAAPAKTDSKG
T1 sequence (P52002 whole entry): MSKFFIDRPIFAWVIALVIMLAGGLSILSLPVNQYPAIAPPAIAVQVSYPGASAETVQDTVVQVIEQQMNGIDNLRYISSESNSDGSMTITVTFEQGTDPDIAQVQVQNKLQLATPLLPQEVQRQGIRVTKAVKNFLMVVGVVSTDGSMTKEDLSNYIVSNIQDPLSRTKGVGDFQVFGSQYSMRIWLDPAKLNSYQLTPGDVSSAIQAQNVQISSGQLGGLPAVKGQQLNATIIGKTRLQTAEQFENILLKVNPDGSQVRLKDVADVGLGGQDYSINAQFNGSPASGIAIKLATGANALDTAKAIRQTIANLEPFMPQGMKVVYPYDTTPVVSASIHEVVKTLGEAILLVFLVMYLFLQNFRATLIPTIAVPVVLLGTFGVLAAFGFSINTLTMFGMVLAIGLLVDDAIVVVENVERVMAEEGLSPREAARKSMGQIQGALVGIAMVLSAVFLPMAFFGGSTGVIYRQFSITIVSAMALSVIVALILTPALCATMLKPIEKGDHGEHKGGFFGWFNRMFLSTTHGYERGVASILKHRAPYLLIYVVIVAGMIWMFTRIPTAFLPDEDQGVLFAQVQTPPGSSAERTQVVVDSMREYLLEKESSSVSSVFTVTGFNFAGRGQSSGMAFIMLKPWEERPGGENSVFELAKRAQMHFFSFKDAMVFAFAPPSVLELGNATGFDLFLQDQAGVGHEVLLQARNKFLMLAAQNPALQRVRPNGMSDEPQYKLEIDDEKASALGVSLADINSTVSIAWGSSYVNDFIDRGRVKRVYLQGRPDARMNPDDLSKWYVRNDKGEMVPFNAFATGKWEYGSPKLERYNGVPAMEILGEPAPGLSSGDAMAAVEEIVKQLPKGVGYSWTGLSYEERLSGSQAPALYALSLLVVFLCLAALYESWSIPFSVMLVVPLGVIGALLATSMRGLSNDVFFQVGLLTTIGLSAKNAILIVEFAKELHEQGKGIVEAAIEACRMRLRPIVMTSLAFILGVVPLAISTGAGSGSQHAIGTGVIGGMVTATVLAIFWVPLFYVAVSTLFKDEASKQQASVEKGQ

Compound | efflux transporter substrate [1] | MreB inhibition (MreB) | MIC (P. aeruginosa PAO1 [2]; [6]) [µg/mL] | Antibiotic Activity Against E. coli: MIC with EPI (Enhancement) (E. coli 25922 [3]) [µg/mL] | Antibiotic Activity Against P. aeruginosa: MIC with EPI (Enhancement) (P. aeruginosa PAO1 [4]) [µg/mL] | MIC (E. coli 25922 [5]; [7]) [µg/mL] | MIC (P. aeruginosa PAO1 [2]; PAO1, 18 h) [µg/mL] | MIC (E. coli 25922 [5]; Escherichia coli, 25922, 18 h) [µg/mL] | Antibiotic Activity Against P. aeruginosa: Intrinsic MIC (P. aeruginosa PAO1 [2]; P. aeruginosa PAO1, without EPI, MIC90) [μ/mL] | Antibiotic Activity Against E. coli: Intrinsic MIC (E. coli 25922 [5]; E. coli 25922, without EPI, MIC90) [µg/mL]
N=C(N)SCc1ccc(Cl)c(Cl)c1 [Example A22, S-(3,4-Dichlorobenzyl)isothiourea] | substrate for the MexAB-OprM efflux transporter | effective MreB inhibitor |  |  |  |  |  |  |  | 
Br.N=C(N)SCc1ccc(-c2ccc(F)cc2)cc1 [Example 9, (4′-fluoro-[1,1′-biphenyl]-4-yl)methyl Carbamimidothioate Hydrobromide] |  |  | > 256 | 64 | >256 | 64 |  |  |  | 
CN1CN=C(SCc2ccc3ccccc3c2)NC1 [Example 13, 3-methyl-6-((naphthalen-2-ylmethyl)thio)-1,2,3,4-tetrahydro-1,3,5-triazine] |  |  | > 256 | 16 | 16 | > 256 |  |  |  | 
N=C(N)SCc1cccc(Br)c1 [Example 8, 3-bromobenzyl Carbamimidothioate Hydrobromide] |  |  |  | >256 | >256 |  | > 256 | > 256 |  | 
Br.N=C(N)SCc1ccc(Cl)cc1Cl [Example 2, 2,4-Dichlorobenzyl Carbamimidothioate Hydrobromide] |  |  | > 256 | >256 | 1.0 | > 256 |  |  |  | 
N=C(N)SCc1ccc(C(F)(F)F)nc1 [Example 14, (6-(trifluoromethyl)pyridin-3-yl)methyl Carbamimidothioate Hydrochloride] |  |  |  | >256 | >256 |  | > 256 | > 256 |  | 
Cl.N=C(N)SCc1ccc2ccccc2c1 [Example 12, naphthalen-2-ylmethyl Carbamimidothioate Hydrobromide] |  |  | > 256 | 16 | 4 | > 256 |  |  |  | 
Isoquinolin-5-ylmethyl Carbamimidothioate Hydrobromide [Example 20] |  |  |  | >256 | >256 |  |  |  | >256 | >256
CC(C)(C)OC(=O)n1ccc2cc(CSC(=N)N)ccc21 [Example 17, t-Butyl 5-((carbamimidoylthio)methyl)-1H-indole-1-carboxylate] |  |  | > 256 | 128 | >256 | > 128 |  |  |  | 
N=C(N)SCc1ccc2occc2c1 [Example 15, benzofuran-5-ylmethyl Carbamimidothioate Hydrobromide] |  |  | 16 | >256 | 4 | > 256 |  |  |  | 
Cl.N=C(N)SCc1ccc(Cl)c(Cl)c1 [Example 1, 3,4-Dichlorobenzyl Carbamimidothioate Hydrobromide] |  |  | > 256 | 4 | 0.5 | 64 |  |  |  | 
N=C(N)SCc1cccc2ccccc12 [Example 11, naphthalen-1-ylmethyl Carbamimidothioate Hydrobromide] |  |  | > 256 | >256 | >256 | > 256 |  |  |  | 
Br.N=C(N)SCc1cccc2cccnc12 [Example 19, quinolin-8-ylmethyl Carbamimidothioate Hydrobromide] |  |  | > 256 | >256 | >256 | > 256 |  |  |  | 
N=C(N)SCc1cccc(-c2ccc(F)cc2)c1 [Example 10, (4′-fluoro-[1,1′-biphenyl]-3-yl)methyl Carbamimidothioate Hydrobromide] |  |  | > 256 | 64 | >256 | 64 |  |  |  | 
Br.CC(C)(C)c1ccc(CSC(=N)N)cc1 [Example 3, 4-(t-Butyl)Benzyl Carbamimidothioate Hydrobromide] |  |  | > 256 | 256 | 256 | 256 |  |  |  | 
CNC(=N)SCc1ccc(Cl)c(Cl)c1.Cl [Example 6, 3,4-dichlorobenzyl Methylcarbamimidothioate Hydrobromide] |  |  | > 256 | >256 | 4.0 | > 256 |  |  |  | 
Br.CC(SC(=N)N)c1ccc(Cl)c(Cl)c1 (stereo not shown) [Example 5, 1-(3,4-Dichlorophenyl)ethyl Carbamimidothioate Hydrobromide] |  |  | > 256 | 256 | 4.0 | 256 |  |  |  | 
N=C(N)SCCc1ccc(Cl)c(Cl)c1 [Example 4, 3,4-dichlorophenethyl carbamimidothioate] |  |  | > 256 | 256 | >256 | 256 (≈ 1030 µM) |  |  |  | 
N=C(N)SCc1ccc2ncccc2c1 [Example 18, quinolin-6-ylmethyl Carbamimidothioate Hydrobromide] |  |  | > 256 | >256 | >256 | > 256 |  |  |  | 
N=C(N)SCc1ccc2sccc2c1 [Example 16, Benzo[b]thiophen-5-ylmethyl Carbamimidothioate Hydrobromide] |  |  | > 256 | >256 | 4 | > 256 |  |  |  | 
Br.N=C(N)SCc1ccc(Br)cc1 [Example 7, 4-Bromobenzyl Carbamimidothioate Hydrobromide] |  |  | > 256 | >256 | 1.0 | > 256 |  |  |  | 
